Data reported in ChEMBL document CHEMBL5728082, “Aryl, heteroaryl, and heterocyclic compounds for treatment of medical disorders” (2020).

Target: Complement factor D (Homo sapiens, UniProt P00746)
Assay: Inhibition Assay: Human Factor D (purified from human serum, Complement Technology, Inc.) at 80 nM final concentration was incubated with test compound at various concentrations for 5 minutes at room temperature in 50 mM Tris, 1M NaCl, pH 7.5. A synthetic substrate Z-L-Lys-SBzl and DTNB (Ellman's reagent) are added to final concentrations of 100 Î¼M each. […] IC50 values are calculated by nonlinear regression of complement Factor D reaction rates as a function of test compound concentration.

Complement factor D, sequence (P00746 whole entry): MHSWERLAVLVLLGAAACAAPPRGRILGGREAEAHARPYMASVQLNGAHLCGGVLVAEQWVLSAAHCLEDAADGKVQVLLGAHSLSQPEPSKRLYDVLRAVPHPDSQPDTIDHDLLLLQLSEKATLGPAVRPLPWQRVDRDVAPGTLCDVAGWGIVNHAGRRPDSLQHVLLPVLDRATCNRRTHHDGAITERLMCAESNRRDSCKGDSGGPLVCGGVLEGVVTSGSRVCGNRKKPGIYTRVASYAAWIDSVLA

## CC(=O)c1nn(CC(=O)N2[C@H](C(=O)N[C@H](C)[C@H]3CC3(Cl)Cl)C[C@@]3(C)C[C@@H]23)c2ccc(-c3cnc(C)nc3)cc12
  IC50: < 1000 nM
